Laboratory results published in ChEMBL document CHEMBL3414561, “Discovery of 4'-chloromethyl-2'-deoxy-3',5'-di-O-isobutyryl-2'-fluorocytidine (ALS-8176), a first-in-class RSV polymerase inhibitor for treatment of human respiratory syncytial virus infection” (J Med Chem, 2015).
Calls of active or inactive are those of the source. The rule behind the calls is not given here.

Key:
[1] = Inhibition of Respiratory syncytial virus RNA polymerase in crude RSV RNP complex assessed as inhibition of [33P]CMP incorporation into RNA chain
[2] = Cytotoxicity against human HeLa cells assessed as cell viability by CellTiter-Glo luminescent assay; assay type: cell-based
[3] = test system: Respiratory syncytial virus; assay: Antiviral activity against Respiratory syncytial virus subgenomic replicon system in 395 HeLa cells assessed as reduction in viral replication after 7 days by renilla luciferase assay; assay type: functional, organism-based; settings: human respiratory syncytial virus, 168 h
[4] = target: DNA polymerase beta (Homo sapiens) (UniProt P06746); assay: Inhibition of human DNA-dependent DNA polymerase beta using calf thymus DNA/[3H]dTTP as substrate by microplate scintillation reader; settings: concentration not given here
[5] = organism: Homo sapiens; assay: Inhibition of human DNA-dependent DNA polymerase alpha using calf thymus DNA/[3H]dTTP as substrate by microplate scintillation reader; settings: concentration not given here
[6] = target: DNA-directed RNA polymerase, mitochondrial (Homo sapiens) (UniProt O00411); assay: Inhibition of human mitochondrial RNA polymerase assessed as 13-mer product using [33P]RNA/DNA primer/templates used by […] gel electrophoresis
[7] = organism: Homo sapiens; assay: Inhibition of human DNA-directed RNA polymerase 2 using cytomegalovirus DNA fragment as substrate; settings: concentration not given here
[8] = organism: Homo sapiens; assay: Inhibition of human DNA-dependent DNA polymerase gamma using calf thymus DNA/[3H]dTTP as substrate by microplate scintillation reader; settings: concentration not given here
[9] = target: DNA-directed RNA polymerase, mitochondrial (Homo sapiens) (UniProt O00411); assay: Binding affinity to human mitochondrial RNA polymerase assessed as compound incorporation using [33P]RNA/DNA primer/templates used by […] gel electrophoresis

Chain of DNA-directed RNA polymerase, mitochondrial (Homo sapiens) (O00411 whole entry, the tested form may be a part): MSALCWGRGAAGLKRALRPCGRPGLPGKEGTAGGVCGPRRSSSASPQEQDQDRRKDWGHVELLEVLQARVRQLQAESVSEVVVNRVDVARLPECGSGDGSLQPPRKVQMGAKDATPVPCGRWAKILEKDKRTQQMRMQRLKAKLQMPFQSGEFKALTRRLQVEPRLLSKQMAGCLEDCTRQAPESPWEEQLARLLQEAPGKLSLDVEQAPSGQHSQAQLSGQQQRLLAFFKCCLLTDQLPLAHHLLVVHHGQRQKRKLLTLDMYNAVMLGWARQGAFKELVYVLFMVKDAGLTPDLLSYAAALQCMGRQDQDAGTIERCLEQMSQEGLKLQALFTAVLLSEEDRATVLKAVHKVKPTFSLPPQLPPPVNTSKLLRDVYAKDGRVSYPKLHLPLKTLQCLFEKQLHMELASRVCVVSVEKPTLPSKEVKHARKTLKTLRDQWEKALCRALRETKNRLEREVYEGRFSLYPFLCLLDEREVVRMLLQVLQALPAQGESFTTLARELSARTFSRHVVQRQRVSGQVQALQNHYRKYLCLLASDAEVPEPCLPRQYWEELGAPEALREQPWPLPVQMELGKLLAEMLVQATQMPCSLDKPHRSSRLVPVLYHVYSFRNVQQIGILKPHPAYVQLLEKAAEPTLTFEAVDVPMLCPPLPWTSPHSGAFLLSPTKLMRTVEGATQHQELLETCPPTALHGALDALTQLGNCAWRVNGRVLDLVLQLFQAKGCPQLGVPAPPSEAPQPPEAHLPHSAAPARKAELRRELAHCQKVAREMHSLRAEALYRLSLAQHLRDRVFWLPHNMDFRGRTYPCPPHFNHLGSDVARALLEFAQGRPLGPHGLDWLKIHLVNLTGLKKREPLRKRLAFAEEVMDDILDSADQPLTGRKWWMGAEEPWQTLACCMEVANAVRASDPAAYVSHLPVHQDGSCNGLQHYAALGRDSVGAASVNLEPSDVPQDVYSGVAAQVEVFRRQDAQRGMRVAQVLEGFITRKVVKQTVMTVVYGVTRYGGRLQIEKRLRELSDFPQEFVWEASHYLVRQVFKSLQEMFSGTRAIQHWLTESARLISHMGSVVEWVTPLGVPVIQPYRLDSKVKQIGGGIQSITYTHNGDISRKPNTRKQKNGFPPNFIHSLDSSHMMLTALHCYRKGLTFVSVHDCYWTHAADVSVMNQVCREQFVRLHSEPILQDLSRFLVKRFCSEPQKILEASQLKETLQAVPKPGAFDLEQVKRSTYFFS

SMILES: Nc1ccn([C@@H]2O[C@](CCl)(COP(=O)(O)OP(=O)(O)OP(=O)(O)O)[C@@H](O)[C@@H]2F)c(=O)n1
- IC50 [1]: 4900 nM

SMILES: CC(C)C(=O)OC[C@@]1(CCl)O[C@@H](n2ccc(N)nc2=O)[C@H](F)[C@@H]1O
- CC50 [2]: > 90000 nM
- EC50 [3]: 100 nM

SMILES: C=C[C@]1(CO)O[C@@H](n2ccc(N)nc2=O)[C@H](F)[C@@H]1O
- CC50 [2]: > 100000 nM
- EC50 [3]: 1910 nM

SMILES: Nc1ccn([C@@H]2O[C@](CBr)(COP(=O)(O)OP(=O)(O)OP(=O)(O)O)[C@@H](O)[C@H]2F)c(=O)n1
- IC50 [1]: 150 nM

SMILES: [N-]=[N+]=N[C@]1(CO)O[C@@H](n2ccc(N)nc2=O)[C@@H](O)[C@@H]1O
- CC50 [2]: > 100000 nM
- EC50 [3]: 520 nM

SMILES: [N-]=[N+]=N[C@]1(CO)O[C@@H](n2ccc(N)nc2=O)[C@H](F)[C@@H]1O
- CC50 [2]: > 100000 nM
- EC50 [3]: 190 nM

SMILES: Nc1ccn([C@@H]2O[C@@](CO)(CCl)[C@@H](O)[C@@H]2O)c(=O)n1
- CC50 [2]: > 100000 nM
- EC50 [3]: > 100000 nM

SMILES: CCC[C@]1(COP(=O)(O)OP(=O)(O)OP(=O)(O)O)O[C@@H](n2ccc(N)nc2=O)[C@H](F)[C@@H]1O
- IC50 [1]: 2000 nM

SMILES: C#C[C@]1(COP(=O)(O)OP(=O)(O)OP(=O)(O)O)O[C@@H](n2ccc(N)nc2=O)[C@H](F)[C@@H]1O
- IC50 [1]: 130 nM

SMILES: CCCCCCCC(=O)OC[C@@]1(CCl)O[C@@H](n2ccc(N)nc2=O)[C@H](F)[C@@H]1OC(=O)CCCCCCC
- CC50 [2]: > 66000 nM
- EC50 [3]: 280 nM

SMILES: CCCCC(=O)OC[C@@]1(CCl)O[C@@H](n2ccc(N)nc2=O)[C@H](F)[C@@H]1OC(=O)CCCC
- CC50 [2]: > 100000 nM
- EC50 [3]: 130 nM

SMILES: [N-]=[N+]=N[C@]1(COP(=O)(O)OP(=O)(O)OP(=O)(O)O)O[C@@H](n2ccc(N)nc2=O)[C@H](O)[C@@H]1O
- IC50 [1]: 240 nM

SMILES: Nc1ccn([C@@H]2O[C@](CCl)(COP(=O)(O)OP(=O)(O)OP(=O)(O)O)[C@@H](O)[C@H]2F)c(=O)n1
- inhibition [4]: < 50%
- IC50 [1]: 20 nM
- inhibition [5]: < 50%
- inhibition [6]: inactive
- inhibition [7]: < 50%
- inhibition [8]: < 50%

SMILES: [N-]=[N+]=N[C@]1(CO)O[C@@H](n2ccc(N)nc2=O)[C@H](O)[C@@H]1O [4'-AZIDOCYTIDINE]
- CC50 [2]: > 80000 nM
- EC50 [3]: 670 nM

SMILES: Nc1ccn([C@@H]2O[C@@](CO)(C3CC3)[C@@H](O)[C@H]2F)c(=O)n1
- CC50 [2]: > 100000 nM
- EC50 [3]: 560 nM

SMILES: CO[C@]1(COP(=O)(O)OP(=O)(O)OP(=O)(O)O)O[C@@H](n2ccc(N)nc2=O)[C@H](F)[C@@H]1O
- IC50 [1]: 70 nM

SMILES: [N-]=[N+]=N[C@]1(COP(=O)(O)OP(=O)(O)OP(=O)(O)O)O[C@@H](n2ccc(N)nc2=O)[C@@H](O)[C@@H]1O
- IC50 [1]: 200 nM

SMILES: Nc1ccn([C@@H]2O[C@@](CO)(CBr)[C@@H](O)[C@H]2F)c(=O)n1
- CC50 [2]: > 100000 nM
- EC50 [3]: 480 nM

SMILES: Nc1ccn([C@@H]2O[C@H](COP(=O)(O)OP(=O)(O)OP(=O)(O)O)[C@@H](O)C2(F)F)c(=O)n1
- Activity [9]: Active
- inhibition [6]: Active

SMILES: CCCCCCCC(=O)OC[C@@]1(CCl)O[C@@H](n2ccc(N)nc2=O)[C@H](F)[C@@H]1O
- CC50 [2]: > 100000 nM
- EC50 [3]: 30 nM

SMILES: CCCCCC(=O)OC[C@@]1(CCl)O[C@@H](n2ccc(N)nc2=O)[C@H](F)[C@@H]1OC(=O)CCCCC
- CC50 [2]: > 100000 nM
- EC50 [3]: 220 nM

SMILES: CCCCCCCCCCCC(=O)O[C@H]1[C@@H](F)[C@H](n2ccc(N)nc2=O)O[C@@]1(CO)CCl
- CC50 [2]: > 89000 nM
- EC50 [3]: 270 nM

SMILES: Nc1ccn([C@@H]2O[C@@](CO)(CCl)[C@@H](O)[C@H]2O)c(=O)n1
- CC50 [2]: > 100000 nM
- EC50 [3]: > 100000 nM

SMILES: [N-]=[N+]=N[C@]1(COP(=O)(O)OP(=O)(O)OP(=O)(O)O)O[C@@H](n2ccc(N)nc2=O)C(F)(F)[C@@H]1O
- inhibition [4]: < 50%
- IC50 [1]: 300 nM
- inhibition [5]: < 50%
- inhibition [6]: inactive
- inhibition [7]: < 50%
- inhibition [8]: < 50%

SMILES: CC(C)[C@H](N)C(=O)OC[C@@]1(CCl)O[C@@H](n2ccc(N)nc2=O)[C@H](F)[C@@H]1O
- CC50 [2]: > 100000 nM
- EC50 [3]: 40 nM

SMILES: C[C@]1(COP(=O)(O)OP(=O)(O)OP(=O)(O)O)O[C@@H](n2ccc(N)nc2=O)[C@H](F)[C@@H]1O
- IC50 [1]: 10 nM

SMILES: CCC(=O)OC[C@@]1(CCl)O[C@@H](n2ccc(N)nc2=O)[C@H](F)[C@@H]1OC(=O)CC
- CC50 [2]: > 100000 nM
- EC50 [3]: 40 nM

SMILES: CSC[C@]1(CO)O[C@@H](n2ccc(N)nc2=O)[C@H](F)[C@@H]1O
- CC50 [2]: > 63000 nM
- EC50 [3]: 510 nM

SMILES: Nc1ccn([C@@H]2O[C@@](COP(=O)(O)OP(=O)(O)OP(=O)(O)O)(C3CC3)[C@@H](O)[C@H]2F)c(=O)n1
- IC50 [1]: 200 nM

SMILES: [N-]=[N+]=N[C@]1(CO)O[C@@H](n2ccc(N)nc2=O)C(F)(F)[C@@H]1O
- CC50 [2]: > 100000 nM
- EC50 [3]: 750 nM

SMILES: CSC[C@]1(COP(=O)(O)OP(=O)(O)OP(=O)(O)O)O[C@@H](n2ccc(N)nc2=O)[C@H](F)[C@@H]1O
- IC50 [1]: 2700 nM

SMILES: CC(C)C(=O)O[C@H]1[C@@H](F)[C@H](n2ccc(N)nc2=O)O[C@@]1(CO)CCl
- CC50 [2]: > 88000 nM
- EC50 [3]: 160 nM

SMILES: C=CC[C@]1(COP(=O)(O)OP(=O)(O)OP(=O)(O)O)O[C@@H](n2ccc(N)nc2=O)[C@H](F)[C@@H]1O
- IC50 [1]: 90 nM

SMILES: C=C[C@]1(COP(=O)(O)OP(=O)(O)OP(=O)(O)O)O[C@@H](n2ccc(N)nc2=O)[C@H](F)[C@@H]1O
- IC50 [1]: 90 nM

SMILES: Nc1ccn([C@@H]2O[C@H](COP(=O)(O)OP(=O)(O)OP(=O)(O)O)[C@@H](O)[C@H]2F)c(=O)n1
- Activity [9]: Active
- inhibition [6]: Active

SMILES: CCC[C@]1(CO)O[C@@H](n2ccc(N)nc2=O)[C@H](F)[C@@H]1O
- CC50 [2]: > 100000 nM
- EC50 [3]: 2690 nM

SMILES: C=CC[C@]1(CO)O[C@@H](n2ccc(N)nc2=O)[C@H](F)[C@@H]1O
- CC50 [2]: > 100000 nM
- EC50 [3]: 2640 nM

SMILES: Nc1ccn([C@@H]2O[C@](CCl)(COP(=O)(O)OP(=O)(O)OP(=O)(O)O)[C@@H](O)[C@H]2O)c(=O)n1
- IC50 [1]: 1600 nM

SMILES: CC[C@]1(COP(=O)(O)OP(=O)(O)OP(=O)(O)O)O[C@@H](n2ccc(N)nc2=O)[C@H](F)[C@@H]1O
- inhibition [4]: < 50%
- IC50 [1]: 150 nM
- inhibition [5]: < 50%
- inhibition [6]: inactive
- inhibition [7]: < 50%
- inhibition [8]: < 50%

SMILES: Nc1ccn([C@@H]2O[C@@](CO)(CCl)[C@@H](O)[C@@H]2F)c(=O)n1
- CC50 [2]: > 100000 nM
- EC50 [3]: > 100000 nM

SMILES: CCCCCCCC(=O)O[C@H]1[C@@H](F)[C@H](n2ccc(N)nc2=O)O[C@@]1(CO)CCl
- CC50 [2]: > 70000 nM
- EC50 [3]: 220 nM

SMILES: Nc1ccn([C@@H]2O[C@H](COP(=O)(O)OP(=O)(O)OP(=O)(O)O)[C@@H](O)[C@@H]2O)c(=O)n1
- Activity [9]: Active
- inhibition [6]: Active

SMILES: C[C@]1(CO)O[C@@H](n2ccc(N)nc2=O)[C@H](F)[C@@H]1O
- CC50 [2]: > 100000 nM
- EC50 [3]: 2140 nM

SMILES: CO[C@]1(CO)O[C@@H](n2ccc(N)nc2=O)[C@H](F)[C@@H]1O
- CC50 [2]: > 100000 nM
- EC50 [3]: 12700 nM

SMILES: Nc1ccn([C@@H]2O[C@@](CO)(CCl)[C@@H](O)C2(F)F)c(=O)n1
- CC50 [2]: 62000 nM
- EC50 [3]: 65000 nM

SMILES: C#C[C@]1(CO)O[C@@H](n2ccc(N)nc2=O)[C@H](F)[C@@H]1O
- CC50 [2]: > 100000 nM
- EC50 [3]: 1120 nM

SMILES: [N-]=[N+]=N[C@]1(COP(=O)(O)OP(=O)(O)OP(=O)(O)O)O[C@@H](n2ccc(N)nc2=O)[C@H](F)[C@@H]1O
- IC50 [1]: 100 nM
- Activity [9]: Active
- inhibition [6]: Active
